Assay results from US10226509B2, “Lymphangiogenesis inhibitors for cancer and for graft survival” (TUFTS UNIVERSITY, priority 2014, dated 2019).

Experiments:
[1] = system: AKT; experiment: Western blot of AKT activation in primary LECs; format: cell-based, human; details: 0.5 μM for 0 to 60 minutes or 0 to 0.5 μM for 30 minutes
Procedure: Primary LECs were lysed with Triton lysis buffer supplemented with protease inhibitor cocktail and Phos-STOP phosphatase inhibitor cocktail (Roche), and subjected to electrophoresis in 4-15% SDS-PAGE gels (Bio-Rad). Protein blots of the gels were blocked with 0.5×Odyssey® blocking buffer (OBB, Li-COR). For AKT and ERK signaling, blots were incubated with primary antibodies (rabbit anti-ERK1/2, 1:7500, Cell Signaling Technology; mouse anti-phospho-ERK1/2, Thr202/Tyr204, 1:2000, Cell Signaling Technology; mouse anti-AKT1/2/3, 1:2000, Cell Signaling Technology; rabbit anti-phospho-AKT, Ser473, 1:1500, Cell Signaling Technology) overnight at 4° C. Blots were washed with 0.5% Tween-20/PBS three times, and were incubated with appropriate secondary antibodies (donkey anti-rabbit IRDye 680LT and anti-mouse IRDye 800CW, Li-Cor) for 45 min at 25° C. The blots were scanned by an Odyssey® Infrared Imaging System using Image Studio v2.0 software (Li-COR). […] Signals were detected by Odyssey® Infrared Imaging System. […]

[2] = system: VEGF-C-induced LEC sprouting; experiment: LEC sprouting assay: VEGF-C-induced sprouting; format: cell-based, human
Procedure: LEC spheroids were generated by seeding primary LECs at passage 4 or 5 in each well of 384-well hanging-drop plates (3D Biomatrix) in complete EGM-2 MV medium containing 0.25% methyl cellulose according to the manufacturer's instructions (750 cells/well). After 18 hours, LEC spheroids were collected, resuspended in serum-free EBM-2 basal medium, and mixed with collagen solution (PureCol collagen, Advanced BioMatrix, 2.2 mg/ml in M199 medium, pH adjusted to 7.4 with NaHCO3 and NaOH). Aliquots of the LEC spheroid/collagen mixture (250 μl/well of 48-well plate) were incubated in the presence or absence of various test agents for 24 hr. At the end of the incubation period, spheroids were stained with Calcein AM (Invitrogen, 1 μg/mL, 37° C., and 30 min). Fluorescent images were acquired using the EVOS FL cell imaging system, pixels were inverted for better visualization and cumulative length of each sprout was calculated. Results were expressed as fold change compared to corresponding controls. It was observed that sprout lengths vary from passages to passages. Test agents used included thiodigalactoside (10 to 50 mM, Carbosynth), 3′-sialyl lactose (2 to 10 mM, Carbosynth), 6′-sialyl lactose (2 to 10 mM, Carbosynth), LY294002 (20 μM, Abeam), U0126 (20 μM, Abeam), PD0325901 (1 μM, Selleckchem), human VEGFR-3-Fc chimera (10 μg/ml, R&D), human VEGFR-2-Fc chimera (10 μg/ml, R&D), Avastin (10 μg/ml, bevacizumab, Genentech/Roche), human control IgG (10 μg/ml, Southern Biotech), anti-human podoplanin functional grade antibody (10 μg/ml, eBioscience), and rat IgG2a κ isotype control functional grade antibody (10 μg/ml, eBioscience).
In this assay, the LEC spheroids were treated with VEGF-C (50 ng/ml) in the presence or absence of 0.75 μM of Gal-8 for 24 hours, and then accumulated sprout lengths were quantified. […] Synergistic effect of Gal-8 on VEGF-C-induced LEC sprouting was dose-dependent. […] At concentrations >0.5 μM Gal-8, there was no further increase in the degree of VEGF-C-induced lymphangiogenesis (FIG. 4C).
To further characterize the role of carbohydrate-mediated recognition in VEGF-C-induced lymphangiogenesis, LEC spheroids were stimulated with VEGF-C (50 ng/ml) in the presence or absence of three different galectin inhibitors. […] Therefore, the data establishes the critical role of Gal-8-mediated carbohydrate-mediated recognition in VEGF-C-induced lymphangiogenesis.

Gal-8: recombinant galectin-8, tandem-repeat type galectin with two different CRDs
phosphorylation of AKT (in words) [1]: induced phosphorylation of AKT and ERK1/2 in time- and dose-dependent manner
VEGF-C-induced LEC sprouting, times higher than VEGF-C alone or Gal-8 alone ([2]; VEGF-C 50 ng/ml plus 0.75 μM of Gal-8): 5 times
effect on VEGF-C-induced LEC sprouting (in words) ([2]; VEGF-C 50 ng/ml, 24 h): markedly enhanced
